Patent US6696433B2, “Use of sex steroids function modulators to treat wounds and fibrotic disorders” (Renovo Limited, priority 1996, dated 2004)

Tests used:
wound repair = test: Supplementation of individuals with DHEA, wound healing in the aged; type: in vivo
[1] = tested on: 4 mm punch biopsy wounds of the upper inner arm; test: Topical oestrogen patch clinical trial of wound healing in elderly men and women; type: in vivo, human; conditions: patch applied to the wound for 24 hours post-wounding
Method: Approval for this study was given by the local Ethics Committee. Forty health-status defined volunteers split into four groups: (i) GROUP 3A comprised ten women with mean age 76.3 yr (Sd 5.6) who received oestrogen supplements (25 μg/24 hrs of oestradiol) (ii) GROUP 3B comprised ten women with mean age 72.5 yr (Sd 7.1) who received placebo instead of oestrogen. (iii) GROUP 3C comprised ten men with mean age 69.6 yr (Sd 3.6) who received oestrogen supplements (ii) GROUP 3D comprised ten men with mean age 71.8 yr (Sd 8.9) who received placebo instead of oestrogen. After informed consent subjects from each of Groups 3A, 3B, 3C and 3D underwent two 4 mm punch biopsies from the upper inner arm (a non sun-exposed site) following local infiltration with 1 ml 1% lignocaine. Each biopsy of normal skin was bisected and one-half embedded in Optimal Cutting Temperature compound (Miles Inc. Elkhart, Ind.), frozen over liquid nitrogen, and stored at −70° C., and one-half snap-frozen in liquid nitrogen and stored at −70° C. The area for biopsy was covered by a 2×3 cm patch (placebo Groups 3B and 3D or active oestradiol 3A and 3C) through which the biopsies were made. The patch was covered by a Multisorb dry gauze dressing (Smith & Nephew) and both were removed after 24 hrs. The active patches contained sufficient oestradiol such that the wound sites were exposed to 25 μg/24 hrs of oestradiol. Five subjects from Groups 3A, 3B, 3C and 3D underwent re-excision of the wounds at day 7 post-wounding, and the other five subjects from each group at day 84 post-wounding. The left upper inner arm was cleaned with isopropyl alcohol, elliptical excisions of the wounds were made following 1% lignocaine infiltration and two sutures were used to close the gap. Each wound was bisected and processed as described above (3.1.3). 7 μm paraffin-embedded sections were strained with H&E and Masson's Trichrome. The rate of re-epithelialisation (at day 7 post-wounding), and wound sizes as determined by planimetry, were determined with image analysis using an Olympus Vanox camera and PC image capture system. Collagen quantity within the wound was determined by two observers blinded to the identity of the specimen on the following scale +=minimal quantities; ++=less than normal skin; +++=similar to normal skin; ++++=greater than normal skin. The wound stiffness at day 80 was determined using the non-disruptive Dimensional Analysis System (Das). Previous studies have correlated wound breaking strength values (ultimate pressure at failure) to wound stiffness using this system. The system applies a multiaxial load (negative pressure) to the wound and measures the deformation due to the load of two reflective targets placed at the wound edges, using a high resolution camera and video processor. Pressure was applied to a maximum of 100 mmHg and then released, Stiffness was measured between 20 and 80 mmHg.

[2] = tested on: full thickness incisional wounds; test: Incisional wound healing in OVX and sham rats, histology at day 7 post-wounding; type: in vivo, Female Sprague Dawley rats; set-up: key to NEW COLLAGEN / CELLS: + = little/few; ++++ = lots); key to EPITHELIALISATION: Y = epithelialised
Description: Female Sprague Dawley rats were housed together in three groups (1A, 1B and 1C) of nine to allow for synchronised oestrus cycling. Group 1A were ovariectomised (OVX) 18 days prior to wounding to allow circulating sex hormone levels to be eliminated. Group 1B (control) were untreated and Group 1C had the same operative procedure as the OVX (Group 1A), but without the removal of the ovaries, to ensure that the OVX operative procedure had no effect on the wounding studies (sham).
17 β-oestradiol (Sigma) was prepared as sterile 0.1% and 1% solutions in phosphate buffered saline (PBS) containing 0.1% and 1% 2-hydroxypropyl-β-cyclodextrin respectively, 2-hydroxypropyl-β-cyclodextrin is used in preparations as a carrier molecule to increase the water solubility of β-oestradiol. PBS/cyclodextrin was used as a vehicle control.
Animals from Groups 1A, 1B and 1C were given 4×1 cm length full thickness incisional wounds at 4.5-5.5 cm and 7.5-8.5 cm below the base of the skull, 1 cm either side of the midline. A single 100 μl intradermal injection was then given at each of the four wound sites. Each of the wounds (a total of 36 wounds on 9 rats in each group) received either 100 μl of oestradiol (0.1% or 1%), 100 μl of vehicle control (0.1% or 1% cyclodextrin) or was left unmanipulated (no injection).
The wounds were allowed to heal for 7 days after which the wounded tissue was excised for histological analysis.
7 μm paraffin-embedded sections were stained with H&E and Masson's Trichrome. The rate of re-epithelialisation (at day 7 post-wounding), and wound sizes as determined by planimetry, were determined with image analysis using an Olympus Vanox camera and PC image capture system. Collagen quantity within the wound was determined by two observers blinded to the identity of the specimen.

[3] = 0.1% oestradiol with 0.1% cyclodextrin vehicle, single 100 μl intradermal injection, OVX rats
[4] = 0.1% oestradiol with 0.1% cyclodextrin vehicle, single 100 μl intradermal injection, SHAM rats
[5] = 1% oestradiol with 1% cyclodextrin vehicle, single 100 μl intradermal injection, OVX rats
[6] = 1% oestradiol with 1% cyclodextrin vehicle, single 100 μl intradermal injection, SHAM rats

| Structure (SMILES) | rate of wound repair (wound repair) | rate at which the wound heals [1] | CELLS [2, 3] | EPITHELIALISATION [2, 3] | NEW COLLAGEN [2, 3] | WOUND WIDTH [2, 3] | EPITHELIALISATION [2, 4] | WOUND WIDTH [2, 4] | EPITHELIALISATION [2, 5] | WOUND WIDTH [2, 5] | EPITHELIALISATION [2, 6] | WOUND WIDTH [2, 6] | rate of wound healing ([2]; 1% β-oestradiol, OVX group wounds, compared to control PBS treated and unmanipulated wounds) | rate of wound healing ([2]; single application of 0.1% β-oestradiol, OVX wounds, compared to control wounds) |
| --- | --- | --- | --- | --- | --- | --- | --- | --- | --- | --- | --- | --- | --- | --- |
| C[C@]12CC[C@H](O)CC1=CC[C@@H]1[C@@H]2CC[C@]2(C)C(=O)CC[C@@H]12 [DHEA, Dehydroepiandrosterone] | stimulating the rate of wound repair |  |  |  |  |  |  |  |  |  |  |  |  |  |
| C[C@]12CC[C@@H]3c4ccc(O)cc4CC[C@H]3[C@@H]1CC[C@@H]2O [OESTRADIOL, 17 β-oestradiol] |  | sufficient to improve the rate at which the wound heals | + | Y | ++++ | narrow | Y | narrow | Y | narrow | Y | wide | increased rate of wound healing | accelerated wound healing |
